Earlier results, collected in EP0956866A1, “DRUGS FOR AMELIORATING OPHTHALMIC CIRCULATORY DISTURBANCE” (KIRIN BEER KABUSHIKI KAISHA, priority 1996, dated 1998).

Tests used:
[1] = disclosed in WO89/10757
[2] = literature report

Compound	ocular pressure [1]	ocular blood flow [2]
CC1(C)Oc2ccc(C#N)cc2C(N2CCCC2=O)C1O (stereo not drawn) [cromakalim]	lower the ocular pressure	lowers the ocular blood flow
CC(N/C(=N\C#N)Nc1ccncc1)C(C)(C)C (stereo not drawn) [pinacidil]	lower the ocular pressure	
